Data: PubChem BioAssay (NCI)
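Tested at 5 concentrations; 48 h exposure; 96-well plates; endpoints linearly interpolated, else capped at highest concentration. TGI: total growth inhibition.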

Assays:
Test in all cases: inhibition of tumour cell growth, NCI panel, 48 h
786-0 renal = system: 786-0 renal
A549 NSCLC = system: A549 NSCLC
HCT-116 colon = system: HCT-116 colon
HCT-15 colon = system: HCT-15 colon
HOP-62 NSCLC = system: HOP-62 NSCLC
MCF7 breast = system: MCF7 breast
NCI-H23 lung = system: NCI-H23 lung
SNB-19 CNS = system: SNB-19 CNS
UACC-62 melanoma = system: UACC-62 melanoma
UO-31 renal = system: UO-31 renal

Row | Compound | TGI (786-0 renal) | TGI (A549 NSCLC) | TGI (HCT-116 colon) | TGI (HCT-15 colon) | TGI (HOP-62 NSCLC) | TGI (MCF7 breast) | TGI (NCI-H23 lung) | TGI (SNB-19 CNS) | TGI (UACC-62 melanoma) | TGI (UO-31 renal)
1 | CSc1s[s+]c(SC)c1-c1ccccc1 | 28.1 µM | > 100 µM | 29.5 µM | 41.5 µM | 29.4 µM | 33.7 µM | 34.7 µM | 35.1 µM | 28.3 µM | 46.3 µM
2 | N#Cc1nnc2c3c(-c4ccc(Cl)cc4)c(C#N)c(=O)[nH]c3nn2c1N | 18.2 µM | > 59.9 µM | 15.9 µM | 30.9 µM | 21.8 µM | 16.3 µM | 24 µM | 19.5 µM | 4.44 µM | 20.7 µM
3 | COc1cc(O)c2c(c1)C(O)C(O)CC1OC1C(=O)/C=C/CC(C)OC2=O (stereo not given) | 13.8 µM | 67.8 µM | 12.2 µM | 17 µM | 44.3 µM | 16.3 µM | 12 µM | 58.2 µM | 3.2 µM | 17.1 µM
4 | COc1ccc(S(=O)(=O)Nc2ccc(-c3csc(N4C(=O)/C(=C/C=C\c5ccccc5)N=C4c4ccccc4)n3)cc2)cc1Cl | > 100 µM | > 100 µM | 68.5 µM | 51.5 µM | > 100 µM | > 100 µM | 42.4 µM | > 100 µM | 49.9 µM | 58.6 µM
5 | COC(=O)C(Cc1ccccc1)NC(=O)CCCNC(=O)OCc1ccccc1 (stereo not given) | > 100 µM | > 100 µM | > 100 µM | > 100 µM | > 100 µM | > 100 µM | > 100 µM | > 100 µM | > 100 µM | > 100 µM
6 | O=C(O)c1ccc(Nc2cnc3ccc(C(F)(F)F)cc3n2)cc1 | > 100 µM | 30.8 µM | 37.6 µM | 36.8 µM | 38.9 µM | > 100 µM | 33.5 µM | 33.7 µM | 29.2 µM | 27.5 µM
7 | c1ccc(C/C(=N\Nc2nc3ccccc3o2)c2ccccn2)cc1 | 0.136 µM | > 34.6 µM | 3.68 µM | 4.64 µM | 1.55 µM | 0.0215 µM | > 36.4 µM | 20.5 µM | 2.49 µM | 4.55 µM
8 | COC(=O)c1ccc(OCc2ccc3nc(-c4ccccc4)c(Cl)nc3c2)cc1 | 48.9 µM | > 100 µM | > 100 µM | > 100 µM | > 100 µM | > 100 µM | > 100 µM | > 100 µM | > 100 µM | > 100 µM
9 | C/C(=C/CC[C@](C)(OC1OC(CO)C(O)C(O)C1O)[C@H]1CC[C@]2(C)[C@@H]1CC[C@@H]1[C@@]3(C)CC[C@H](O)C(C)(C)[C@@H]3C[C@H](O)[C@]12C)CO (stereo not given in full) | 61.2 µM | > 100 µM | 42.7 µM | 57.5 µM | 69.9 µM | > 100 µM | > 100 µM | 56.5 µM | 58.3 µM | > 100 µM
10 | CC(C)[Si]1(C(C)C)OCC2OC(n3cnc4c(N)ncnc43)C(N)C2O[Si](C(C)C)(C(C)C)O1 (stereo not given) | 28.3 µM | 49.5 µM | 16.9 µM | 23.8 µM | > 49.5 µM | 8.56 µM | 26.5 µM | 97.5 µM | 27.4 µM | 27.6 µM
11 | CCOP(=O)(OCC)C(F)(F)CC1CCCCC1 | > 10 µM | > 10 µM | > 10 µM | > 10 µM | > 10 µM | > 10 µM | > 10 µM | > 10 µM | > 10 µM | > 10 µM
12 | COCCCN1C(=O)C2c3[nH]c4ccccc4c3C3CCC(C(C)(C)C)CC3C2C1=O (stereo not given) | 63.1 µM | > 100 µM | 38.6 µM | 44.7 µM | 52.2 µM | 56.2 µM | 82.6 µM | > 100 µM | > 10 µM | > 100 µM
